≈ marks a conversion by molar mass, not a printed value.
Assays:
[1] = twenty four hours following a single oral dose; cited from earlier work
[2] = average person, drinking water guidance; cited from earlier work
[3] = system: antibody of the invention (polyclonal IgG raised against Immunogen II, TCG-BTG); experiment: Competitive ELISA for TCG: cross-reactivity and specificity of the antibody; type: binding, sheep; details: for IC50 = standard concentration which produces 50% B/B0: hapten A-HRP conjugate
Description: TCG was coupled to bovine thyroglobulin (Immunogen II, Example 5). The resulting immunogen was administered to adult sheep on a monthly basis to provide target-specific polyclonal antisera. IgG was extracted from the antisera via caprylic acid/ammonium sulphate precipitation of immunoglobulin. Microtitre plates (Thermo Scientific, 468667) were coated with antibody (125 μl) in coating buffer (10 mM Tris pH 8.5) at 37° C. for 2 hours. Antibody was coated at 1.25 μg/ml. The plates were then washed. 50 μl of sample/standard (trichloroethyl glucuronide, Randox LK811; chloral hydrate, Sigma C8383-100 g; trichloroacetic acid, Fisher Scientific T/3000/50; ETG, Randox LK589) was added to the appropriate wells in triplicate, followed by 75 μl of hapten A-HRP conjugate at ¼K and incubated at 25° C. for 1 hour. The plates were then washed and 125 μl of TMB (Randox, 4380-15) was added to each well and left at room temperature for 20 mins in the dark. The reaction was stopped using 125 μl of 0.2M sulphuric acid. The absorbances were read at 450 nm with an ELISA microplate reader (BIO-TEK Instruments, Elx800) and the means calculated. Antibody specificity and sensitivity were then determined.
Competitive ELISA results in the Table 1 below highlight the specificity of the antibody of the invention towards TCG.

[4] = metabolite of chloral hydrate; cited from earlier work

| Compound | % CR = percentage cross-reactivity based on 100% specificity to TCG ([3]; competitive ELISA) | IC50 = standard concentration which produces 50% B/B0 ([3]; competitive ELISA) | % B/B0 ([3]; standard 31.25 ng/ml) | A450 (absorbance at 450 nm) ([3]; standard 31.25 ng/ml) | % B/B0 ([3]; standard 62.5 ng/ml) | A450 (absorbance at 450 nm) ([3]; standard 62.5 ng/ml) | % B/B0 ([3]; standard 125 ng/ml) | A450 (absorbance at 450 nm) ([3]; standard 125 ng/ml) | % B/B0 ([3]; standard 250 ng/ml) | A450 (absorbance at 450 nm) ([3]; standard 250 ng/ml) | % B/B0 ([3]; standard 500 ng/ml) | A450 (absorbance at 450 nm) ([3]; standard 500 ng/ml) | % B/B0 ([3]; standard 1000 ng/ml) | A450 (absorbance at 450 nm) ([3]; standard 1000 ng/ml) | % B/B0 ([3]; standard 2000 ng/ml) | A450 (absorbance at 450 nm) ([3]; standard 2000 ng/ml) | further results |
| --- | --- | --- | --- | --- | --- | --- | --- | --- | --- | --- | --- | --- | --- | --- | --- | --- | --- |
| OC(O)C(Cl)(Cl)Cl [Chloral Hydrate, 2,2,2-trichloroethanediol] | – | – | – | – | – | – | – | – | – | – | – | – | – | – | – | – | excreted in the urine as TCG [1]: ~28%; excreted in the urine as trichloroethanol [1]: approximately 0.7%; Tolerable Daily Intake (TDI) [2]: 0.3 mg/day |
| CCO[C@@H]1O[C@H](C(=O)O)[C@@H](O)[C@H](O)[C@H]1O [EtG, ethyl glucuronide] | <<0.69% | >>2000 ng/ml | 86.7% | 1.183 | 83.9% | 1.144 | 84.8% | 1.157 | 82.8% | 1.130 | 80.2% | 1.094 | 75.6% | 1.031 | 69.6% | 0.950 | cross-reactivity with the antibody of the invention (in words) ([3]; competitive ELISA, Table 1): does not cross-react |
| O=C(O)[C@H]1O[C@@H](OCC(Cl)(Cl)Cl)[C@H](O)[C@@H](O)[C@@H]1O [TCG, trichloroethanol glucuronide] | 100% | 13.724 ng/mL (≈ 0.0422 µM) | – | – | – | – | – | – | – | – | – | – | – | – | – | – | % B/B0 ([3]; standard 1.25 ng/ml): 86.6%; A450 (absorbance at 450 nm) ([3]; standard 1.25 ng/ml): 1.313; % B/B0 ([3]; standard 2.5 ng/ml): 81.0%; A450 (absorbance at 450 nm) ([3]; standard 2.5 ng/ml): 1.228; % B/B0 ([3]; standard 5 ng/ml): 70.0%; A450 (absorbance at 450 nm) ([3]; standard 5 ng/ml): 1.061; % B/B0 ([3]; standard 10 ng/ml): 57.5%; A450 (absorbance at 450 nm) ([3]; standard 10 ng/ml): 0.872; % B/B0 ([3]; standard 20 ng/ml): 42.3%; A450 (absorbance at 450 nm) ([3]; standard 20 ng/ml): 0.641; % B/B0 ([3]; standard 40 ng/ml): 30.7%; A450 (absorbance at 450 nm) ([3]; standard 40 ng/ml): 0.465; % B/B0 ([3]; standard 80 ng/ml): 24.6%; A450 (absorbance at 450 nm) ([3]; standard 80 ng/ml): 0.373 |
| O=C(O)C(Cl)(Cl)Cl [Trichloroacetic Acid, trichloroacetic acid] | <<0.69% | >>2000 ng/ml | 91.2% | 1.372 | 92.5% | 1.391 | 92.4% | 1.389 | 87.2% | 1.312 | 85.4% | 1.284 | 81.8% | 1.230 | 72.7% | 1.094 | half-life [4]: approximately 4 days |
